ChEMBL document CHEMBL6153118, “Structure Optimization of Natural Product Catalpol to Obtain Novel and Potent Analogs against Heart Failure” (J Med Chem, 2025)
Activity calls are given as the source filed them. The rule behind the calls is not given here.

How the values were obtained:
H9c2 [1] = assay: Cytoprotective activity against OGD-induced myocardial ischemic injury in rat H9c2 cells assessed as cell viability at 5 uM preincubated for 12 hrs followed by exposure to OGD condition for 3 hrs by CCK8 assay (reference value: 49.23 to 50.05 %); type: functional; conditions: time 15 hrs, read-out: Activity
H9c2 [2] = assay: Cytoprotective activity against OGD-induced myocardial ischemic injury in rat H9c2 cells assessed as cell viability at 50 uM preincubated for 12 hrs followed by exposure to OGD condition for 3 hrs by CCK8 assay (reference value: 49.23 to 50.05 %); type: functional; conditions: time 15 hrs, read-out: Activity
Cardiac muscle cell [3] = assay: Cytoprotective activity against OGD-induced myocardial ischemic injury in neonatal rat primary cardiomyocytes assessed as decrease in cellular damage preincubated for 12 hrs followed by exposure to OGD condition for 3 hrs; type: functional, cell-based; conditions: time 15.0 hrs
H9c2 [4] = assay: Cytoprotective activity against OGD-induced myocardial ischemic injury in rat H9c2 cells assessed as decrease in LDH level at 5 to 50 uM preincubated for 12 hrs followed by exposure to OGD condition for 3 hrs by UV absorption analysis; type: functional, cell-based; conditions: dose 5-50 µM, time 15.0 hrs
H9c2 [5] = assay: Cytoprotective activity against OGD-induced myocardial ischemic injury in rat H9c2 cells assessed as decrease in ROS level at 5 to 50 uM preincubated for 12 hrs followed by exposure to OGD condition for 3 hrs by DCFH-DA probe based analysis; type: functional, cell-based; conditions: dose 5-50 µM, time 15.0 hrs
Mus musculus [6] = assay: Cardioprotective activity in ISO-induced heart failure C57BL/6J mouse assessed as […] in ejection fraction in heart at 20 mg/kg/day, po for 14 days by echocardiography; type: functional, organism-based; conditions: time 14.0 day
Mus musculus [7] = assay: Cardioprotective activity in ISO-induced heart failure C57BL/6J mouse assessed as […] in fractional shortening in heart at 20 mg/kg/day, po for 14 days by echocardiography; type: functional, organism-based; conditions: time 14.0 day
Mus musculus [8] = assay: Inhibition of cardiomyocyte hypertrophy in ISO-induced heart failure C57BL/6J mouse at 20 mg/kg/day, po for 14 days; type: functional, organism-based; conditions: time 14.0 day
[9] = Metabolic stability in human liver microsomes assessed as intrinsic clearance measured for 5 to 60 mins in presence of NADPH by LC-MS/MS analysis; type: ADME, Microsome; conditions: time 5-60 min, read-out: CLH
[10] = Metabolic stability in mouse liver microsomes assessed as half life measured for 5 to 60 mins in presence of NADPH by LC-MS/MS analysis; type: ADME, Microsome; conditions: time 5-60 min
[11] = Metabolic stability in mouse liver microsomes assessed as intrinsic clearance measured for 5 to 60 mins in presence of NADPH by LC-MS/MS analysis; type: ADME, Microsome; conditions: time 5-60 min, read-out: CLH
H9c2 [12] = assay: Cytoprotective activity against OGD-induced myocardial ischemic injury in rat H9c2 cells assessed as decrease in cell death at 5 to 50 uM preincubated for 12 hrs followed by exposure to OGD condition for 3 hrs by crystal violet staining based analysis; type: functional; conditions: dose 5-50 µM, time 15.0 hrs
Cardiac muscle cell [13] = assay: Cytoprotective activity against OGD-induced myocardial ischemic injury in neonatal rat primary cardiomyocytes assessed as decrease in cellular damage at 1 uM preincubated for 12 hrs followed by exposure to OGD condition for 3 hrs; type: functional, cell-based; conditions: time 15.0 hrs
Mus musculus [14] = assay: Cardioprotective activity in ISO-induced heart failure C57BL/6J mouse assessed as ejection fraction in heart at 20 mg/kg/day, po for 14 days by echocardiography (reference value: 49.55 +/- 2.41 %); type: functional; conditions: time 14 day
Mus musculus [15] = assay: Cardioprotective activity in ISO-induced heart failure C57BL/6J mouse assessed as fractional shortening in heart at 20 mg/kg/day, po for 14 days by echocardiography (reference value: 24.49 +/- 1.49 %); type: functional; conditions: time 14 day
Mus musculus [16] = assay: Cardioprotective activity in ISO-induced heart failure C57BL/6J mouse assessed as ejection fraction in heart at 5 mg/kg/day, po for 14 days by echocardiography (reference value: 49.55 +/- 2.41 %); type: functional; conditions: time 14 day
Mus musculus [17] = assay: Cardioprotective activity in ISO-induced heart failure C57BL/6J mouse assessed as fractional shortening in heart at 5 mg/kg/day, po for 14 days by echocardiography (reference value: 24.49 +/- 1.49 %); type: functional; conditions: time 14 day
Mus musculus [18] = assay: Improvement in motor ability in ISO-induced heart failure C57BL/6J mouse assessed as increase in grip strength at 5 to 20 mg/kg/day, po for 14 days; type: functional, organism-based; conditions: dose 5-20 mg/kg/day, time 14.0 day
Mus musculus [19] = assay: Improvement in motor ability in ISO-induced heart failure C57BL/6J mouse assessed as increase in time of remote motion with rotarod at 5 to 20 mg/kg/day, po for 14 days; type: functional, organism-based; conditions: dose 5-20 mg/kg/day, time 14.0 day
Mus musculus [20] = assay: Inhibition of cardiomyocyte hypertrophy in ISO-induced heart failure C57BL/6J mouse at 5 to 20 mg/kg/day, po for 14 days; type: functional, organism-based; conditions: dose 5-20 mg/kg/day, time 14.0 day
Mus musculus [21] = assay: Inhibition of cardiac fibrosis in ISO-induced heart failure C57BL/6J mouse at 5 to 20 mg/kg/day, po for 14 days; type: functional, organism-based; conditions: dose 5-20 mg/kg/day, time 14.0 day
H9c2 [22] = assay: Cytoprotective activity against OGD-induced myocardial ischemic injury in rat H9c2 cells assessed as cell viability at 100 uM preincubated for 12 hrs followed by exposure to OGD condition for 3 hrs by CCK8 assay (reference value: 49.23 to 50.05 %); type: functional; conditions: time 15 hrs, read-out: Activity

| Compound | viability at 5 µM (H9c2 [1]) [%] | viability at 50 µM (H9c2 [2]) [%] | other results |
| --- | --- | --- | --- |
| O=C(NC[C@]12O[C@H]1[C@@H](O)[C@@H]1C=CO[C@@H](O[C@@H]3O[C@H](CO)[C@@H](O)[C@H](O)[C@H]3O)[C@@H]12)C1CCCCC1 | 60 | 61.3 | – |
| O=C(NC[C@]12O[C@H]1[C@@H](O)[C@@H]1C=CO[C@@H](O[C@@H]3O[C@H](CO)[C@@H](O)[C@H](O)[C@H]3O)[C@@H]12)c1ccncc1 | 54.2 | 57.5 | – |
| OC[C@H]1O[C@@H](O[C@@H]2OC=C[C@H]3[C@H](O)[C@@H]4O[C@]4(COc4cccc5ccccc45)[C@@H]23)[C@H](O)[C@@H](O)[C@@H]1O | 55.5 | 58.8 | – |
| O=C(NC[C@]12O[C@H]1[C@@H](O)[C@@H]1C=CO[C@@H](O[C@@H]3O[C@H](CO)[C@@H](O)[C@H](O)[C@H]3O)[C@@H]12)c1ccco1 | 58.8 | 55.6 | – |
| O=C(/C=C/c1ccccc1)NC[C@]12O[C@H]1[C@@H](O)[C@@H]1C=CO[C@@H](O[C@@H]3O[C@H](CO)[C@@H](O)[C@H](O)[C@H]3O)[C@@H]12 | 57.9 | 61.5 | – |
| OC[C@H]1O[C@@H](O[C@@H]2OC=C[C@H]3[C@H](O)[C@@H]4O[C@]4(COc4ccc5ccoc5c4)[C@@H]23)[C@H](O)[C@@H](O)[C@@H]1O | 56.7 | 57 | – |
| O=C(NC[C@]12O[C@H]1[C@@H](O)[C@@H]1C=CO[C@@H](O[C@@H]3O[C@H](CO)[C@@H](O)[C@H](O)[C@H]3O)[C@@H]12)c1ccc2occc2c1 | 59.1 | 58 | – |
| COc1ccc(C(=O)NC[C@]23O[C@H]2[C@@H](O)[C@@H]2C=CO[C@@H](O[C@@H]4O[C@H](CO)[C@@H](O)[C@H](O)[C@H]4O)[C@@H]23)cc1OC | 62.1 | 57.8 | – |
| OC[C@H]1O[C@@H](O[C@@H]2OC=C[C@H]3[C@H](O)[C@@H]4O[C@]4(COc4cc(C(F)(F)F)cc(C(F)(F)F)c4)[C@@H]23)[C@H](O)[C@@H](O)[C@@H]1O | 56.1 | 50.1 | – |
| OC[C@H]1O[C@@H](O[C@@H]2OC=C[C@H]3[C@H](O)[C@@H]4O[C@]4(COc4ccc(C5CCCC5)cc4)[C@@H]23)[C@H](O)[C@@H](O)[C@@H]1O | 64.5 | 60.8 | – |
| OC[C@H]1O[C@@H](O[C@@H]2OC=C[C@H]3[C@H](O)[C@@H]4O[C@]4(COc4ccc5c(c4)OCO5)[C@@H]23)[C@H](O)[C@@H](O)[C@@H]1O | 59.6 | 60.7 | – |
| OC[C@H]1O[C@@H](O[C@@H]2OC=C[C@H]3[C@H](O)[C@@H]4O[C@]4(CO)[C@@H]23)[C@H](O)[C@@H](O)[C@@H]1O [CATALPOL] | 50.6 | 50.7 | Activity (Cardiac muscle cell [3]): Active; Activity (H9c2 [4]): Active; Activity (H9c2 [5]): Active; Activity (Mus musculus [6]): Active; Activity (Mus musculus [7]): Active; inhibition (Mus musculus [8]): Active |
| COc1ccc(CC(=O)NC[C@]23O[C@H]2[C@@H](O)[C@@H]2C=CO[C@@H](O[C@@H]4O[C@H](CO)[C@@H](O)[C@H](O)[C@H]4O)[C@@H]23)cc1OC | 60.9 | 59.4 | – |
| O=C(NC[C@]12O[C@H]1[C@@H](O)[C@@H]1C=CO[C@@H](O[C@@H]3O[C@H](CO)[C@@H](O)[C@H](O)[C@H]3O)[C@@H]12)c1cccnc1 | 58.2 | 59.6 | – |
| OC[C@H]1O[C@@H](O[C@@H]2OC=C[C@H]3[C@H](O)[C@@H]4O[C@]4(COc4ccc(C5CCCCC5)cc4)[C@@H]23)[C@H](O)[C@@H](O)[C@@H]1O | 60.9 | 56.6 | – |
| OC[C@H]1O[C@@H](O[C@@H]2OC=C[C@H]3[C@H](O)[C@@H]4O[C@]4(COc4cccc5c4CCCC5)[C@@H]23)[C@H](O)[C@@H](O)[C@@H]1O | 54.4 | 55.5 | – |
| O=C(NC[C@]12O[C@H]1[C@@H](O)[C@@H]1C=CO[C@@H](O[C@@H]3O[C@H](CO)[C@@H](O)[C@H](O)[C@H]3O)[C@@H]12)c1cccs1 | 54.1 | 60.4 | – |
| COc1ccc(OC[C@]23O[C@H]2[C@@H](O)[C@@H]2C=CO[C@@H](O[C@@H]4O[C@H](CO)[C@@H](O)[C@H](O)[C@H]4O)[C@@H]23)cc1 | 62.5 | 57.5 | – |
| O=C(O)Cc1ccccc1Nc1c(Cl)cccc1Cl [DICLOFENAC] | – | – | CLint scaled [9]: 202 mL/min/kg; half-life [10]: 1.1 h; CLint scaled [11]: 82.9 mL/min/kg |
| OC[C@H]1O[C@@H](O[C@@H]2OC=C[C@H]3[C@H](O)[C@@H]4O[C@]4(COc4ccc(F)cc4)[C@@H]23)[C@H](O)[C@@H](O)[C@@H]1O | 61.7 | 64.6 | – |
| O=C(NC[C@]12O[C@H]1[C@@H](O)[C@@H]1C=CO[C@@H](O[C@@H]3O[C@H](CO)[C@@H](O)[C@H](O)[C@H]3O)[C@@H]12)c1ccccc1 | 63.6 | 70 | Activity (H9c2 [12]): Active; Exhibited Superior Protective Efficacy Than Catal-Pol; Activity (Cardiac muscle cell [13]): Active |
| OC[C@H]1O[C@@H](O[C@@H]2OC=C[C@H]3[C@H](O)[C@@H]4O[C@]4(COc4ccccc4)[C@@H]23)[C@H](O)[C@@H](O)[C@@H]1O | 59.1 | 60.5 | – |
| CC(C)(C)c1ccc(C(=O)NC[C@]23O[C@H]2[C@@H](O)[C@@H]2C=CO[C@@H](O[C@@H]4O[C@H](CO)[C@@H](O)[C@H](O)[C@H]4O)[C@@H]23)cc1 | 60.7 | 70.9 | Activity (Mus musculus [14]): 53.73%; Activity (H9c2 [12]): Active; Exhibited Superior Protective Efficacy Than Catal-Pol; Activity (Cardiac muscle cell [13]): Active; Activity (H9c2 [4]): Active; Activity (H9c2 [5]): Active; Activity (Mus musculus [15]): 27.5%; Activity (Mus musculus [16]): 55.41%; Activity (Mus musculus [17]): 28.23%; Activity (Mus musculus [18]): Active; Activity (Mus musculus [19]): Active; inhibition (Mus musculus [20]): inactive; inhibition (Mus musculus [21]): Active |
| COc1ccc(/C=C/C(=O)NC[C@]23O[C@H]2[C@@H](O)[C@@H]2C=CO[C@@H](O[C@@H]4O[C@H](CO)[C@@H](O)[C@H](O)[C@H]4O)[C@@H]23)cc1OC | 56.6 | 56.7 | – |
| O=C(NC[C@]12O[C@H]1[C@@H](O)[C@@H]1C=CO[C@@H](O[C@@H]3O[C@H](CO)[C@@H](O)[C@H](O)[C@H]3O)[C@@H]12)c1cncnc1 | 58 | 57.5 | – |
| COc1cc(OC[C@]23O[C@H]2[C@@H](O)[C@@H]2C=CO[C@@H](O[C@@H]4O[C@H](CO)[C@@H](O)[C@H](O)[C@H]4O)[C@@H]23)cc(OC)c1OC | 63.9 | 55.1 | – |
| OC[C@H]1O[C@@H](O[C@@H]2OC=C[C@H]3[C@H](O)[C@@H]4O[C@]4(COc4ccc(-c5ccccc5)cc4)[C@@H]23)[C@H](O)[C@@H](O)[C@@H]1O | 60 | 53.2 | – |
| O=C(NCCO[N+](=O)[O-])c1cccnc1 [NICORANDIL] | – | – | viability at 100 µM (H9c2 [22]): 58.6% |
